From US11945836B2, “Compositions and methods for treating CNS disorders” (Sage Therapeutics, Inc., priority 2014, dated 2024) come the findings set out here.

The test deals with rat brain cortical membranes ([35S]-TBPS binding). In words: Steroid inhibition of [35S]-TBPS binding (radioligand displacement). The following applies: 3 nM [35S]-TBPS, in the presence of 5 μM GABA. The method, then: Steroid Inhibition of TBPS Binding
TBPS binding assays using rat brain cortical membranes in the presence of 5 μM GABA has been described (Gee et al, J. Pharmacol. Exp. Ther. 1987, 241, 346-353; Hawkinson et al, Mol. Pharmacol. 1994, 46, 977-985; Lewin, A. H et al., Mol. Pharmacol. 1989, 35, 189-194).
Briefly, cortices are rapidly removed following decapitation of carbon dioxide-anesthetized Sprague-Dawley rats (200-250 g). The cortices are homogenized in 10 volumes of ice-cold 0.32 M sucrose using a glass/teflon homogenizer and centrifuged at 1500×g for 10 min at 4° C. The resultant supernatants are centrifuged at 10,000×g for 20 min at 4° C. to obtain the P2 pellets. The P2 pellets are resuspended in 200 mM NaCl/50 mM Na—K phosphate pH 7.4 buffer and centrifuged at 10,000×g for 10 min at 4° C. This washing procedure is repeated twice and the pellets are resuspended in 10 volumes of buffer. Aliquots (100 uL) of the membrane suspensions are incubated with 3 nM [^35S]-TBPS and 5 μL aliquots of test drug dissolved in dimethyl sulfoxide (DMSO) (final 0.5%) in the presence of 5 μM GABA. The incubation is brought to a final volume of 1.0 mL with buffer. […] Following a 90 min incubation at room temp, the assays are terminated by filtration through glass fiber filters (Schleicher and Schuell No. 32) using a cell harvester (Brandel) and rinsed three times with ice-cold buffer. Filter bound radioactivity is measured by liquid scintillation spectrometry. Non-linear curve fitting of the overall data for each drug averaged for each concentration is done using Prism (GraphPad). […] The concentration of test compound producing 50% inhibition (IC50) of specific binding and the maximal extent of inhibition (Imax) are determined for the individual experiments with the same model used for the overall data and then the means±SEMs of the individual experiments are calculated.
Various compounds are or can be screened to determine their potential as modulators of [^35S]-TBPS binding in vitro. These assays are or can be performed in accordance with the above discussed procedures.
(Displacement assays read how much labelled ligand stays bound in the presence of the test substance.)
For orientation: IC50 means the concentration needed to halve the response being measured. Take `Cc1cc(C(=O)[C@H]2CC[C@H]3[C@@H]4CC[C@@H]5C[C@](C)(O)CC[C@@H]5[C@H]4CC[C@]23C)ccc1F` [Compound 26]: the IC50 lay in the range of 20 to 50 nM. The value for `Cn1ccc(C(=O)[C@H]2CC[C@H]3[C@@H]4CC[C@H]5C[C@](C)(O)CC[C@]5(C)[C@H]4CC[C@]23C)n1` [Compound 123] was > 100 nM; that for `C[C@@]1(O)CC[C@H]2[C@H](CC[C@@H]3[C@@H]2CC[C@]2(C)[C@@H](C(=O)c4coc5ccccc45)CC[C@@H]32)C1` [Compound 12] was 20 to 50 nM. With `COC[C@]12CC[C@@](C)(O)C[C@@H]1CC[C@H]1[C@@H]3CC[C@H](C(=O)c4ccc(OC(F)(F)F)cc4)[C@@]3(C)CC[C@@H]12` [Compound 102] the figure was 50 to 100 nM; with `CCc1ccc(C(=O)[C@H]2CC[C@H]3[C@@H]4CC[C@H]5C[C@](C)(O)CC[C@]5(COC)[C@H]4CC[C@]23C)cc1` [Compound 104], > 100 nM. Regarding `C[C@@]1(O)CC[C@@]2(C)[C@H](CC[C@@H]3[C@@H]2CC[C@]2(C)[C@@H](C(=O)c4cccc(F)c4)CC[C@@H]32)C1` [Compound 83], the half-maximal inhibitory concentration (IC50) is 20 to 50 nM. `COc1cc(OC)cc(C(=O)[C@H]2CC[C@H]3[C@@H]4CC[C@@H]5C[C@](C)(O)CC[C@@H]5[C@H]4CC[C@]23C)c1` [Compound 130]: the half-maximal inhibitory concentration (IC50) was in the range of 20 to 50 nM.

With `Cc1ccsc1C(=O)[C@H]1CC[C@H]2[C@@H]3CC[C@@H]4C[C@](C)(O)CC[C@@H]4[C@H]3CC[C@]12C` [Compound 46], the concentration for half-maximal inhibition (IC50) was > 100 nM. The value for `C[C@@]1(O)CC[C@@]2(C)[C@H](CC[C@@H]3[C@@H]2CC[C@]2(C)[C@@H](C(=O)c4ccc5c(c4)OCO5)CC[C@@H]32)C1` [Compound 24] was < 20 nM. The value for `C[C@@]1(O)CC[C@H]2[C@H](CC[C@@H]3[C@@H]2CC[C@]2(C)[C@@H](C(=O)c4ccc5ccccc5c4)CC[C@@H]32)C1` [Compound 19] was 50 to 100 nM.

Consider `Cc1ccc(C(=O)[C@H]2CC[C@H]3[C@@H]4CC[C@@H]5C[C@](C)(O)CC[C@@H]5[C@H]4CC[C@]23C)cc1C` [Compound 20], for which the IC50 is 50 to 100 nM. `C[C@@]1(O)CC[C@@]2(C)[C@@H](CC[C@@H]3[C@@H]2CC[C@]2(C)[C@@H](C(=O)c4cccnc4)CC[C@@H]32)C1` [Compound 125]: the 50% inhibitory concentration (IC50) lay within 20 to 50 nM. The value for `COC[C@]12CC[C@@](C)(O)C[C@@H]1CC[C@H]1[C@@H]3CC[C@H](C(=O)c4ccc5cc(OC)ccc5c4)[C@@]3(C)CC[C@@H]12` [Compound 97] was > 100 nM; that for `Cn1c(C(=O)[C@H]2CC[C@H]3[C@@H]4CC[C@@H]5C[C@](C)(O)CC[C@@H]5[C@H]4CC[C@]23C)cc2ccccc21` [Compound 7] was 50 to 100 nM. With `C[C@@]1(O)CC[C@@]2(C)[C@@H](CC[C@@H]3[C@@H]2CC[C@]2(C)[C@@H](C(=O)c4ccccn4)CC[C@@H]32)C1` [Compound 113], the concentration for half-maximal inhibition (IC50) is > 100 nM. The value for `COc1cccc(C(=O)[C@H]2CC[C@H]3[C@@H]4CC[C@H]5C[C@](C)(O)CC[C@]5(C)[C@H]4CC[C@]23C)c1` [Compound 77] was > 100 nM; that for `CN(C)c1ccc(C(=O)[C@H]2CC[C@H]3[C@@H]4CC[C@@H]5C[C@](C)(O)CC[C@@H]5[C@H]4CC[C@]23C)cc1` [Compound 32] was 20 to 50 nM; that for `C[C@@]1(O)CC[C@@]2(C)[C@H](CC[C@@H]3[C@@H]2CC[C@]2(C)[C@@H](C(=O)c4ccc(-c5ccccc5)cc4)CC[C@@H]32)C1` [Compound 22] was 50 to 100 nM. With `C[C@@]1(O)CC[C@H]2[C@H](CC[C@@H]3[C@@H]2CC[C@]2(C)[C@@H](C(=O)c4ccc(F)cc4)CC[C@@H]32)C1` [Compound 55] the figure was 20 to 50 nM; with `C[C@@]1(O)CC[C@@]2(C)[C@H](CC[C@@H]3[C@@H]2CC[C@]2(C)[C@@H](C(=O)c4ccc(Cl)cc4)CC[C@@H]32)C1` [Compound 51], 50 to 100 nM; with `Cn1ccnc1C(=O)[C@H]1CC[C@H]2[C@@H]3CC[C@@H]4C[C@](C)(O)CC[C@@H]4[C@H]3CC[C@]12C` [Compound 3], > 100 nM. The value for `COc1ccc2cc(C(=O)[C@H]3CC[C@H]4[C@@H]5CC[C@@H]6C[C@](C)(O)CC[C@]6(C)[C@H]5CC[C@]34C)ccc2c1` [Compound 85] was > 100 nM; that for `COc1cccc(C(=O)[C@H]2CC[C@H]3[C@@H]4CC[C@H]5C[C@](C)(O)CC[C@@H]5[C@H]4CC[C@]23C)c1` [Compound 71] was > 100 nM. Regarding `C[C@@]1(O)CC[C@@]2(C)[C@@H](CC[C@@H]3[C@@H]2CC[C@]2(C)[C@@H](C(=O)c4ccccc4F)CC[C@@H]32)C1` [Compound 80], the half-inhibitory concentration (IC50) was > 100 nM. The value for `Cn1nccc1C(=O)[C@H]1CC[C@H]2[C@@H]3CC[C@@H]4C[C@](C)(O)CC[C@@H]4[C@H]3CC[C@]12C` [Compound 9] was 20 to 50 nM. The value for `COC[C@]12CC[C@@](C)(O)C[C@@H]1CC[C@H]1[C@@H]3CC[C@H](C(=O)c4ccccn4)[C@@]3(C)CC[C@@H]12` [Compound 115] was > 100 nM. With `Cc1ccc(C(=O)[C@H]2CC[C@H]3[C@@H]4CC[C@@H]5C[C@](C)(O)CC[C@@H]5[C@H]4CC[C@]23C)cc1` [Compound 86] the figure was 20 to 50 nM; with `Cc1ccc(C(=O)[C@H]2CC[C@H]3[C@@H]4CC[C@@H]5C[C@](C)(O)CC[C@]5(C)[C@H]4CC[C@]23C)cc1F` [Compound 27], 20 to 50 nM. For the compound `CN(C)c1ccc(C(=O)[C@H]2CC[C@H]3[C@@H]4CC[C@@H]5C[C@](C)(O)CC[C@]5(C)[C@H]4CC[C@]23C)cc1` [Compound 40], the IC50 lay in the range of 20 to 50 nM. The value for `COC[C@]12CC[C@@](C)(O)C[C@@H]1CC[C@H]1[C@@H]3CC[C@H](C(=O)c4cc(C)cc(C)c4)[C@@]3(C)CC[C@@H]12` [Compound 93] was 50 to 100 nM; that for `COc1cccc(C(=O)[C@H]2CC[C@H]3[C@@H]4CC[C@@H]5C[C@](C)(O)CC[C@]5(C)[C@H]4CC[C@]23C)c1` [Compound 63] was 50 to 100 nM.

Consider `C[C@@]1(O)CC[C@@]2(C)[C@H](CC[C@@H]3[C@@H]2CC[C@]2(C)[C@@H](C(=O)c4ccc(F)cc4)CC[C@@H]32)C1` [Compound 54], for which the half-inhibitory concentration (IC50) is 50 to 100 nM. Regarding `Cc1cc(C(=O)[C@H]2CC[C@H]3[C@@H]4CC[C@H]5C[C@](C)(O)CC[C@]5(C)[C@H]4CC[C@]23C)ccc1F` [Compound 38], the IC50 was 50 to 100 nM. With `COc1ccc(C(=O)[C@H]2CC[C@H]3[C@@H]4CC[C@H]5C[C@](C)(O)CC[C@]5(C)[C@H]4CC[C@]23C)c(C)c1` [Compound 132] the figure was > 100 nM.

Consider `Cc1ccccc1C(=O)[C@H]1CC[C@H]2[C@@H]3CC[C@@H]4C[C@](C)(O)CC[C@@H]4[C@H]3CC[C@]12C` [Compound 64], for which the 50% inhibitory concentration (IC50) is > 100 nM. With `C[C@@]1(O)CC[C@H]2[C@H](CC[C@@H]3[C@@H]2CC[C@]2(C)[C@@H](C(=O)c4cnn[nH]4)CC[C@@H]32)C1` [Compound 98] the figure was > 100 nM; with `Cn1cc(C(=O)[C@H]2CC[C@H]3[C@@H]4CC[C@H]5C[C@](C)(O)CC[C@]5(C)[C@H]4CC[C@]23C)cn1` [Compound 124], 50 to 100 nM; with `COc1ccccc1C(=O)[C@H]1CC[C@H]2[C@@H]3CC[C@H]4C[C@](C)(O)CC[C@]4(C)[C@H]3CC[C@]12C` [Compound 78], > 100 nM. In the case of `COc1ccc2cc(C(=O)[C@H]3CC[C@H]4[C@@H]5CC[C@@H]6C[C@](C)(O)CC[C@@H]6[C@H]5CC[C@]34C)ccc2c1` [Compound 72], the IC50 lay within 20 to 50 nM.
